Measured values published in ChEMBL document CHEMBL1146823 (Bioorg Med Chem Lett, 2004).

The compounds below were run against T1, Carbonic anhydrase 4 (Bos taurus, UniProt Q95323).
T1 sequence (Q95323 whole entry): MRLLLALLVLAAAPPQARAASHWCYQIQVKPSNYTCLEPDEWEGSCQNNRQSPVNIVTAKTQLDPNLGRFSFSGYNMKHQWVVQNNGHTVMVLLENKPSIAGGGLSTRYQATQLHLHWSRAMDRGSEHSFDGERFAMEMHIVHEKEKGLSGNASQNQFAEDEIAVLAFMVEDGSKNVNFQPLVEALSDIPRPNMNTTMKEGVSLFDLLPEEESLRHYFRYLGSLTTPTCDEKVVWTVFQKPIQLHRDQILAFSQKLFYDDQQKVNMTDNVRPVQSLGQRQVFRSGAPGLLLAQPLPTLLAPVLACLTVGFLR
Description: Inhibitory activity of compound against bovine carbonic anhydrase IV
Work on `NS(=O)(=O)c1ccc(S(=O)(=O)Nc2cccc3c(Cl)c[nH]c23)cc1` yielded an IC50 of 65 nM. For `Cc1ccc(-c2cc(C(F)(F)F)nn2-c2ccc(S(N)(=O)=O)cc2)cc1` [CELECOXIB], the IC50 was 290 nM. `NS(=O)(=O)c1cc(Cl)c(Cl)c(S(N)(=O)=O)c1` [DICHLORPHENAMIDE] gave an IC50 of 380 nM. Compound `CC(=O)/N=c1/sc(S(N)(=O)=O)nn1C` [METHAZOLAMIDE] has an IC50 of […]. With `CCN1CCCC1CNC(=O)c1cc(S(N)(=O)=O)ccc1OC` (configuration not stated) [SULPIRIDE] the IC50 was 620 nM. `CC1(C)O[C@@H]2[C@@H](CO[C@@]3(COS(N)(=O)=O)OC(C)(C)O[C@@H]23)O1` [TOPIRAMATE] was tested, and the IC50 was 54 nM.

Each compound was assayed against Carbonic anhydrase 1 (Homo sapiens, UniProt P00915).
Sequence of Carbonic anhydrase 1 (P00915 whole entry): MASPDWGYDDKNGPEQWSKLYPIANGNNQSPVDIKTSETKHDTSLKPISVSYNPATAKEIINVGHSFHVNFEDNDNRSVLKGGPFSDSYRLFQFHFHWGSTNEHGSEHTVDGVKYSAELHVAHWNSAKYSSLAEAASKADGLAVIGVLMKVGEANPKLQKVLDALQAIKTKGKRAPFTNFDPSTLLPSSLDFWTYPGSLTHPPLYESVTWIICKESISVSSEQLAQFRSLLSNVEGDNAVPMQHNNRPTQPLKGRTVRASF
Description: Inhibitory activity of compound against human carbonic anhydrase I
With `C[C@]12CC[C@@H]3c4ccc(OS(N)(=O)=O)cc4CCC3[C@@H]1CCC2=O` (single isomer, unassigned) [EMATE] the IC50 was 37 nM.
